The test system of series [1] is kaolin-induced edema of the hind paw of the rat. Nature of the series: Kaolin edema of the hind paw of the rat. In kind it is in vivo. The note with it: per os, 30 minutes before edema, 35% reduction of swelling at 5 hours. As for the experimental part:
(§1) Compound A and known compound B were tested to determine their actue antiexsudative effect on the kaolin-induced edema and the carrageenin-induced edema of the hind paw of the rat and their acute toxicity after oral administration in rats.
a. Kaolin edema of the hind paw of the rat:
(§2) The kaolin edema was induced according to the method of Hillebrecht [Arzneimittel-Forsch. 4, 607 (1954] by subplantar injection of 0.05 ml of a 10% suspension of kaolin in an aqueous 0.85% sodium chloride solution. Measurement of the thickness of the paws was effected using the technique of Doepfner and Cerletti [Int. Arch. Allergy Immunol. 12, 89 (1958)]. The test compound was administered perorally by means of an esophageal tube to male FW 49-rats having an average body weight of 120 to 150 gm 30 minutes before inducing the edema. 5 hours after the provocation of the edema, the average size of the swelling in the rats treated with the test compound was compared with the average size of the swelling in the control animals treated by a dummy procedure. By graphical extrapolation, the dose leading to a 35% reduction of the swelling (ED35) was calculated from the percentage reduction in the size of the swelling caused by the administration of different doses.

In series [2] the test system is carrageenin-induced edema of the hind paw of the rat. Description: Carrageenin edema of the back paw of the rat. The note with it: per os, 60 minutes before edema, swelling at 3 hours. The class given is in vivo. As for the experimental part: as §1
b. Carrageenin edema of the back paw of the rat:
(§3) The provocation of the carrageenin edema was effected according to the method of Winter et al [Proc. Soc. exp. Biol. Med. 111, 544 (1962)] by subplantar injection of 0.05 ml of a 1% solution of carrageenin in an aqueous 0.85% solution of sodium chloride. The test compound was administered 60 minutes before the provocation of the edema.
(§4) For the calculation of the reductive effect on the edema, the size of the swelling was measured 3 hours after the provocation of the edema. All the other details were the same as described above in the case of the kaolin edema.
On the technique in general: Carrageenan injected into the paw causes an acute inflammation.

The subject of series [3] is platelet stickiness in human citrate blood. Nature of the series: Morris test (platelet stickiness, retention on glass beads). In kind it is cell-based. The note with it: Platelet, 10 min; 10^-^4 mol/liter, human citrate blood; read-out: Morris test (percentage reduction in the stickiness). As for the experimental part: The principle of the Morris test is described in "Stoffwechsel- and Membranpermeabilitat von Erythrozyten und Thrombozyten, I. Int.
1 ml of human citrate blood was pipetted into each of a number of small test tubes, the test compound was added in the desired concentrations, and the tubes were incubated at 37° C for 10 minutes. 2 gm each of glass beads (about 100 mesh) were added to half of the tubes. The tubes, stoppered by means of a plastic plug, were attached to a vertical wheel and rotated for 45 seconds end-over-end. The same tubes were then left to stand at ambient temperature for a further hour, after which time a sedimentation of erythrocytes and glass beads had taken place. 0.01 ml of the supernatant plasma was removed and diluted with 1:800 celloscope solution. The platelet count was read in a celloscope. The percentage of the thrombocytes retained in the sediment (adhering to the glass beads or aggregating) was calculated from the difference of the thrombocyte counts with and without glass contact.
The results were expressed in terms of the percentage reduction in the stickiness compared with the control (without addition of test compound).

A short description of series [4]: Acute toxicity in the rat, oral. The class given is in vivo. The note with it: in vivo, po, per os, male and female FW 49-rats, within 14 days. The procedure:
(§5) The test compound was administered in the form of a trituration in tylose.
(§6) The calculation of the LD50 values was effected, to the extent possible, according to the method of Litchfield and Wilcoxon, based on the percentage of animals which died within 14 days after administration of the different doses.

Another series concerns rat. Description: Acute toxicity in the rat, oral. In kind it is in vivo. The conditions noted are these: per os, vs compound E. As for the experimental part:
as §5, §6

The subject of series [5] is thrombocyte aggregation in the platelet-rich plasma of healthy human donors. Nature of the series: Born test; collagen aggregation. The class given is cell-based. The procedure: b. […] The rate of decline of the optical density of platelet suspensions was measured and recorded photometrically after the addition of commercial collagen. From the angle of inclination of the density curve, the rate of aggregation was estimated. The optical density was taken at the point on the curve where most light was transmitted. The amount of collagen was chosen such that an irreversible control curve was obtained. The results were expressed in terms of the optical density and represent the percentage change in light transmission (= % diminution of the aggregation) caused by the test compound compared with the untreated control.

The test system of series [6] is kaolin- and carrageenin-induced edemas. Description: Kaolin and carrageenin edema combined: average ED35 and therapeutic ratio LD50/ED35. In kind it is in vivo. As for the experimental part:
as §2, §3, §4
The therapeutic index (a measure of the therapeutic usefulness) was calculated as the quotient of the oral LD50 value and the ED35 value derived from the tests to determine the antiexsudative activity against kaolin- and carrageenininduced edemas.

In series [7] the test system is adjuvant arthritis in the rat. Nature of the series: Adjuvant arthritis in the rat. The class given is in vivo. The procedure: d. Adjuvant arthritis in the rat: The adjuvant arthritis tests in rats were carried out according to the method of Rosenthale and Nagra [Proc. Soc. exp. Biol. 125, 149 (1967)]. […] The test compound was administered once a day, starting with the day of the M. butyricum-injection, for a period of 20 days by means of an esophageal tube. […] An ED50 was determined graphically from the reduction of the swelling caused by the administration of different doses.

As usually defined, the LD50 is the dose at which mortality reaches 50%. A high value points to a less toxic substance. A word on the ED50: it is the midpoint of the dose-response relation. On to `CN1C(C(=O)Nc2nccs2)=C(O)c2ccc3ccccc3c2S1(=O)=O` [Compound A, 4-Hydroxy-2-methyl-N-(2-thiazolyl)-2H-naphtho[2,1-e]-1,2-thiazine-3-carboxamide-1,1-dioxide], for which the ED35 came out at 13.5 mg/kg in series [1]; 11 mg/kg in series [2]; 12.2 mg/kg in series [6] (Rattus norvegicus, read-out: Average value ED35). For the same molecule, the inhibition at 100 µM in series [3] amounted to 43%; in series [5] (Homo sapiens, 10^-^4 mol/liter, read-out: Born test (% diminution of the aggregation)), 96%. Moreover, in series [4], the LD50 at 336 h stood at 207 mg/kg. In addition, the “toxicity compared with compound E (in words)” value with rat is on record as “less toxic”. Further, the inhibition at 10 µM in series [5] (Homo sapiens, 10^-^5 mol/liter, read-out: Born test (% diminution of the aggregation)) is 95%. The inhibition at 1 µM in series [5] (Homo sapiens, 10^-^6 mol/liter, read-out: Born test (% diminution of the aggregation)) turned out to be 92%. Moreover, in series [5] (Homo sapiens, 10^-^7 mol/liter, read-out: Born test (% diminution of the aggregation)), the inhibition at 0.1 µM came out at 65%. Further, in series [5] (vs compound E (sudoxicam)), the “50% diminution of the aggregation: times lower concentration than compound E” value is “at least 10 times lower”. Also, the “inhibiting effect on the thrombocyte aggregation compared with compound E (in words)” value in series [5] (vs compound E (sudoxicam)) is “significantly stonger”. Also, in series [6] (oral LD50 / average ED35, rat), the “Therapeutic ratio: ratio of toxic and anti-exsudative activity LD50 / ED35” value amounted to 16.9. In series [6] (vs compound B (indomethacin)), the “therapeutic ratio relative to known compound B” value was “twice as great”. In addition, in series [7], the “activity against adjuvant arthritis (in words)” value is recorded as “surprisingly strong activity”. In addition, the ED50 in series [7] (po, 504 h, per os, once a day for 20 days, paw volume on 21st day, read-out: Adjuvant arthritis in the rat ED50 per os (average value of primary and secondary reaction)) is below 2 mg/kg. The “activity against adjuvant arthritis compared with phenylbutazone (D) (in words)” value in series [7] (vs phenylbutazone (D)) is given as “far superior”.

The record behind these values is patent US3992535A, “4-Hydroxy-2H-naphtho[2,1-e]-1,2-thiazine-3-carboxamide-1,1-dioxides and salts thereof” (priority 1974, dated 1976).
